This is an account of results in patent US11236106B2, “Cycloalkane-1,3-diamine derivative” (Daiichi Sankyo Company, Limited, priority 2018, dated 2022).

The structures appear in SMILES notation. Counter-ions that a name gives are not always drawn.

One experiment deals with T1, menin and MLL (menin, Flag tagged; biotinylated MLL1 peptide 1-46aa) (Homo sapiens, UniProt O00255).
T1 sequence (O00255 1-610): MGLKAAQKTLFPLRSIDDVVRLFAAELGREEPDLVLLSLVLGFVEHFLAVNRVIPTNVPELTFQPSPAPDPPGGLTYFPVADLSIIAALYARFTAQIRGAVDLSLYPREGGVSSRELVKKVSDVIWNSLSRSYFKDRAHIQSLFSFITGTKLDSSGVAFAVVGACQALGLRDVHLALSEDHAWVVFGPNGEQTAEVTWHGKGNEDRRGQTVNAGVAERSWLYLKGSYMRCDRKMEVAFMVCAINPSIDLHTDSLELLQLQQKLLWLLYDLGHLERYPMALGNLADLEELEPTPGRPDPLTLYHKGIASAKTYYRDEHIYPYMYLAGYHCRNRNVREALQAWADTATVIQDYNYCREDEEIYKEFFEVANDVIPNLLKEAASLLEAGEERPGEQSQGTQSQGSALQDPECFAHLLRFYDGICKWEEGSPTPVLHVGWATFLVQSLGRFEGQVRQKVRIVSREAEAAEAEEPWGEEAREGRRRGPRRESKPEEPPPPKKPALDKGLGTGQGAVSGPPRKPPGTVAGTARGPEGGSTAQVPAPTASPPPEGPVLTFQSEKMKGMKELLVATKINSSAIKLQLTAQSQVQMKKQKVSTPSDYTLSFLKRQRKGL
Kind of experiment: biochemical.
Details: not given
As for `CN(c1ncnc2sc(CC(F)(F)F)cc12)[C@H]1C[C@@H](NCc2ccc(-n3cnc4ccccc43)cc2)C[C@H]1O` [Example 79, (1R,2S,4R)-4-({[4-(1H-benzimidazol-yl)phenyl]methyl}amino)-2-{methyl[6-(2,2,2-trifluoroethyl)thieno[2,3-d]pyrimidin-4-yl]amino}cyclopentan-1-ol hydrochloride], the IC50 (commonly the midpoint of a concentration-inhibition curve) was 3.5 nM.
The same measure, in the same setting: in the case of `COc1cc(-c2ccc(CN[C@H]3C[C@@H](O)[C@@H](N(C)c4ncnc5sc(CC(F)(F)F)cc45)C3)cc2)nnc1N1CCC1` [Example 105, (1R,2S,4R)-4-[({4-[6-(azetidin-1-yl)-5-methoxypyridazin-3-yl]phenyl}methyl)amino]-2-{methyl[6-(2,2,2-trifluoroethyl)thieno[2,3-d]pyrimidin-4-yl]amino}cyclopentan-1-ol hydrochloride] it was 8 nM; in that of `COCCOc1nnc(-c2ccc(CN[C@H]3C[C@@H](O)[C@@H](N(C)c4nc(OC)nc5sc(CC(F)(F)F)cc45)C3)cc2)cc1OC` [Example 109, (1R,2S,4R)-4-[({4-[5-methoxy-6-(2-methoxyethoxy)pyridazin-3-yl]phenyl}methyl)amino]-2-{[2-methoxy-6-(2,2,2-trifluoroethyl)thieno[2,3-d]pyrimidin-4-yl](methyl)amino}cyclopentan-1-ol hydrochloride], 0.7 nM.
Compound `COc1nc(N(C)[C@H]2C[C@@H](NCc3ccc(-c4cc(OC)c(Cl)nn4)cc3)C[C@H]2O)c2cc(CC(F)(F)F)sc2n1` [Example 90, (1R,2S,4R)-4-({[4-(6-chloro-5methoxypyridazin-3-yl)phenyl]methyl}amino)-2-{[2-methoxy-6-(2,2,2-trifluoroethyl)thieno[2,3-d]pyrimidin-4-yl](methyl)amino}cyclopentan1-ol hydrochloride] displayed an IC50 of 1.2 nM.
On the same count and under the same terms, the value for `CCOc1cc(-c2ccc(CN[C@H]3C[C@@H](O)[C@@H](N(C)c4ncnc5sc(CC(F)(F)F)cc45)C3)cc2)cnc1OC` [Example 80, (1R,2S,4R)-4-({[4-(5-ethoxy-6-methoxypyridin-3-yl)phenyl]methyl}amino)-2-{methyl[6-(2,2,2-trifluoroethyl)thieno[2,3-d]pyrimidin-4-yl]amino}cyclopentan-1-ol hydrochloride] was 15.4 nM.

The experiment is the same for the next values; noted with them: IC50, binding inhibitory activity between menin and MLL, AlphaLISA; 1 nM menin, 10 nM biotinylated MLL1 peptide.
`CNc1nc(N(C)[C@H]2C[C@@H](NCc3ccc(-c4cccc(S(=O)(=O)N(C)C)c4)cc3)C[C@H]2O)c2cc(CC(F)(F)F)sc2n1` [Example 69, 4′-({[(1R,3R,4S)-3-hydroxy-4-{methyl[2-(methylamino)-6-(2,2,2-trifluoroethyl)thieno[2,3-d]pyrimidin-4-yl]amino}cyclopentyl]amino}methyl)-N,N-dimethyl[1,1′-biphenyl]-3-sulfonamide hydrochloride] yielded an IC50 of 2.8 nM.
Same read-out and setting: the value for `COc1cc(-c2ccc(CN[C@H]3C[C@@H](O)[C@@H](N(C)c4ncnc5sc(CC(F)(F)F)cc45)C3)cc2)cnc1Cl` [Example 65, (1R,2S,4R)-4({[4-(6-chloro-5-methoxypyridin-3-yl)phenyl]methyl}amino)-2{methyl[6-(2,2,2-trifluoroethyl)thieno[2,3-d]pyrimidin-4-yl]amino}cyclopentan-1-ol hydrochloride] was 2.5 nM; that for `COc1nc(N(C)[C@H]2C[C@@H](NCc3ccc(-c4cnc(C#N)c(OC)c4)cc3)C[C@H]2O)c2cc(CC(F)(F)F)sc2n1` [Example 106, 5-[4-({[(1R,3R,4S)-3-hydroxy-4-{[2-methoxy-6-(2,2,2-trifluoroethyl)thieno[2,3-d]pyrimidin-4-yl](methyl)amino}cyclopentyl]amino}methyl)phenyl]-3-methoxypyridine-2-carbonitrile hydrochloride] was 0.7 nM; that for `CN(c1ncnc2sc(CC(F)(F)F)cc12)[C@H]1C[C@@H](NCc2ccc(-c3cccc(N(C)S(C)(=O)=O)c3)cc2)C[C@H]1O` [Example 71, N-[4′-({[(1R,3R,4S)-3-hydroxy-4-{methyl[6-(2,2,2-trifluoroethyl)thieno[2,3-d]pyrimidin-4-yl]amino}cyclopentyl]amino}methyl)[1,1′-biphenyl]-3-yl]-N-methylmethanesulfonamide hydrochloride] was 0.6 nM.
The compound `COc1cc(-c2ccc(CN[C@H]3C[C@@H](O)[C@@H](N(C)c4ncncc4Oc4ccc(F)cc4C(=O)N(C(C)C)C(C)C)C3)cc2)nnc1OC` [Example 89, 2-[(4-{[(1S,2R,4R)-4({[4-(5,6-dimethoxypyridazin-3-yl)phenyl]methyl}amino)-2-hydroxycyclopentyl](methyl)amino}pyrimidin-5-yl)oxy]-5-fluoro-N,N-di(propan-2-yl)benzamide hydrochloride] had an IC50 of 5.6 nM.

Still in this experiment, the particulars now being: cell free IC50 (nM), 1 nM menin, 10 nM biotinylated MLL1 peptide, AlphaLISA.
For `COc1cncc(-c2ccc(CN[C@H]3CC[C@@H](N(C)c4ncnc5sc(CC6CC6)cc45)C3)cc2)c1` [Example 9, (1R,3S)—N^1-[6-(cyclopropylmethyl)thieno[2,3-d]pyrimidin-4-yl]-N^3-{[4-(5-methoxypyridin-3-yl)phenyl]methyl}-N^1-methylcyclopentane-1,3-diamine Hydrochloride], the IC50 came out at 22.2 nM.
Same read-out and setting: in the case of `CN(c1ncnc2sc(CC(F)(F)F)cc12)[C@@H]1CC[C@H](NCc2ccc(Nc3cnn(C)c3)cc2)C1` [Example 12, (1R,3S)—N^1-methyl-N^3-({4-[(1-methyl-1H-pyrazol-4-yl)amino]phenyl}methyl)-N^1-[6-(2,2,2-trifluoroethyl)thieno[2,3-d]pyrimidin-4-yl]cyclopentane-1,3-diamine] it was 33.8 nM; in that of `C=CC(=O)Nc1cccc(Nc2ccc(CN[C@H]3CC[C@@H](N(C)c4nc(NC)nc5sc(CC(F)(F)F)cc45)C3)cc2)c1` [Example 55, N-{3-[4-({[(1S,3R)-3{methyl[2-(methylamino)-6-(2,2,2-trifluoroethyl)thieno[2,3-d]pyrimidin-4-yl]amino}cyclopentyl]amino}methyl)anilino]phenyl}prop-2-enamide hydrochloride], 9.8 nM; in that of `CN(c1ncnc2sc(CC(F)(F)F)cc12)[C@@H]1CC[C@H](NCc2cncs2)C1` [Example 36, (1R,3S)-N^1-methyl-N^3-[(1,3-thiazol-5-yl)methyl]-N^1-[6-(2,2,2-trifluoroethyl)thieno[2,3-d]pyrimidin-4-yl]cyclopentane-1,3-diamine hydrochloride], 636 nM.
Still for that read-out and setting: the value for `COc1cncc(-c2ccc(CN[C@H]3CC[C@@H](N(C)c4ncnc5sc(C6CC6)cc45)C3)cc2)c1` [Example 45, (1R,3S)-N^1-(6-cyclopropylthieno[2,3-d]pyrimidin-4-yl)-N^3-{[4-(5-methoxypyridin-3-yl)phenyl]methyl}-N^1-methylcyclopentane-1,3-diamine hydrochloride] was 33.3 nM; that for `COc1cncc(-c2ccc(CN[C@@H]3C[C@H](N(C)c4ncnc5sc(CC(F)(F)F)cc45)C[C@@H]3O)cc2)c1` [Example 51, (1S,2R,4S)-2-({[4(5methoxypyridin-3-yl)phenyl]methyl}amino)-4-{methyl[6-(2,2,2-trilluoroethyl)thieno[2,3-d]pyrimidin-4-yl]amino}cyclopentan-1-ol hydrochloride] was 10.1 nM.
